# Patent US8937048B2, “Anti-angiogenic compounds” (Covx Technologies Ireland, Limited, priority 2008, dated 2015)
# Where a SMILES comes first, the peptide text is derived from it. Bridges are numbered along the chain shown (N, C = ends).
# Target: T1, recombinant human VEGF165 (Homo sapiens, UniProt P15692)
# T1 sequence (P15692 27-191 isoform P15692-4): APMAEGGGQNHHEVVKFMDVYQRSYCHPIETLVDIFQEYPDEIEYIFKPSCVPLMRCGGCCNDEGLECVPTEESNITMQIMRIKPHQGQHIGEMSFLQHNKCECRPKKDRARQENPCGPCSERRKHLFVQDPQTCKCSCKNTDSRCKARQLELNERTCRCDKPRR
# Assay: VEGF peptide binding assay (competition ELISA, VEGF165 binding to coated VEGFR2/Fc)
# Method: High-binding half-well 96-well plates (Costar #3690) were coated with recombinant human VEGFR2/Fc (50 ng/well) in 50 μl PBS, and incubated at 4° C. overnight. After washing the plates three times with 1× washing buffer (KPL Cat#50-65-00) and blocking with Superblock (Scytek #AAA500) at room temperature (RT) for 1 hour, VEGF-peptides of the invention were serially diluted (concentrations: 0.128-10,000 nM) in the presence of 25 ng/ml of recombinant human VEGF165 in […] Superblock, and were then added to the 96-well plates and incubated at RT for 1 hour. Peptides of the invention tested in this fashion were all capped at the amino terminus with a C(O)CH3 group and at the carboxyl terminus with a NH2 group. The plates were then washed three times with washing buffer, and a diluted (1:500) biotinylated anti-human VEGF antibody (R&D systems, Cat# BAF293) was added and incubated at RT for 2 hours. After washing the plates, streptavidin HRP conjugate (1:200 in Superblock) (R&D systems, Cat# DY998) was added to detect the bound anti-VEGF antibody, followed by addition of tetramethylbenzidine (TMB) substrate (Pierce, Cat#34021) for color development. The reaction was stopped with 2 M H2SO4. OD450 was measured using SpectraMax (Molecular Device) with a correction wavelength of 540 nm. The data were analyzed using Prism software. OD450 values were plotted as a function of the concentrations of the VEGF peptides. IC50 values, indicative of the potency of the VEGF peptides to inhibit VEGF-VEGFR2 interaction, were obtained using a sigmoid dose-response curve fit in Prism.
row,Compound,IC50 [nM]
1,"CC[C@H](C)[C@@H]1NC(=O)[C@H](CC(=O)O)NC(=O)[C@@H](NC(=O)[C@H](CC(N)=O)NC(=O)[C@@H]2CCCN2C(=O)[C@H](CCC(=O)O)NC(=O)[C@@H](NC(C)=O)C(C)C)CSSC[C@@H](C(=O)N[C@@H](Cc2ccccc2)C(=O)N[C@@H](CCC(=O)O)C(=O)N[C@@H](CCCNC(=N)N)C(=O)N[C@@H](CC(C)C)C(=O)N[C@@H](Cc2ccc(O)cc2)C(=O)NCC(=O)N[C@@H](CCC(=O)O)C(=O)N[C@@H](Cc2ccccc2)C(N)=O)NC(=O)[C@H](CCC(=O)O)NC(=O)[C@H](Cc2c[nH]c3ccccc23)NC(=O)[C@H](C(C)C)NC(=O)[C@H](Cc2c[nH]c3ccccc23)NC(=O)[C@H](CCSC)NC(=O)[C@H](C(C)C)NC(=O)[C@H](Cc2c[nH]cn2)NC1=O [Compound 70, VEPNCDIHVMWVWECFERLYGEF] (Ac-VEPNCDIHVMWVWECFERLYGEF-NH2; disulfide 5-15 (inferred))",9.3
2,"CC[C@H](C)[C@@H]1NC(=O)[C@H](CC(=O)O)NC(=O)[C@@H](NC(=O)[C@H](CC(N)=O)NC(=O)[C@@H]2CCCN2C(=O)[C@H](CCC(=O)O)NC(=O)[C@@H](NC(C)=O)C(C)C)CSSC[C@@H](C(=O)N[C@@H](Cc2ccccc2)C(=O)N[C@@H](CCC(=O)O)C(=O)N[C@@H](CCCNC(=N)N)C(=O)N[C@@H](CC(C)C)C(=O)N[C@@H](Cc2ccc(O)cc2)C(=O)NCC(=O)N2CCC[C@H]2C(=O)N[C@@H](Cc2c[nH]c3ccccc23)C(N)=O)NC(=O)[C@H](CCC(=O)O)NC(=O)[C@H](Cc2c[nH]c3ccccc23)NC(=O)[C@H](C(C)C)NC(=O)[C@H](Cc2c[nH]c3ccccc23)NC(=O)[C@H](CCSC)NC(=O)[C@H](C(C)C)NC(=O)[C@H](Cc2c[nH]cn2)NC1=O [Compound 66, VEPNCDIHVMWVWECFERLYGPW] (Ac-VEPNCDIHVMWVWECFERLYGPW-NH2; disulfide 5-15 (inferred))",18.7
3,"CC[C@H](C)[C@H](NC(=O)CNC(=O)[C@H](Cc1ccc(O)cc1)NC(=O)[C@H](CC(C)C)NC(=O)[C@H](CCCNC(=N)N)NC(=O)[C@H](CCC(=O)O)NC(=O)[C@H](Cc1ccccc1)NC(=O)[C@@H]1CSSC[C@H](NC(=O)[C@H](CC(N)=O)NC(=O)[C@@H]2CCCN2C(=O)[C@H](CCC(=O)O)NC(=O)[C@@H](NC(C)=O)C(C)C)C(=O)N[C@@H](CC(=O)O)C(=O)N[C@@H]([C@@H](C)CC)C(=O)N[C@@H](Cc2c[nH]cn2)C(=O)N[C@@H](C(C)C)C(=O)N[C@@H](CCSC)C(=O)N[C@@H](Cc2c[nH]c3ccccc23)C(=O)N[C@@H](C(C)C)C(=O)N[C@@H](Cc2c[nH]c3ccccc23)C(=O)N[C@@H](CCC(=O)O)C(=O)N1)C(=O)N[C@@H](Cc1ccccc1)C(N)=O [Compound 40, VEPNCDIHVMWVWECFERLYGIF] (Ac-VEPNCDIHVMWVWECFERLYGIF-NH2; disulfide 5-15 (inferred))",78.3
4,"CC[C@H](C)[C@@H]1NC(=O)[C@H](CC(=O)O)NC(=O)[C@@H](NC(=O)[C@H](CC(N)=O)NC(=O)[C@@H]2CCCN2C(=O)[C@H](CCC(=O)O)NC(=O)[C@@H](NC(C)=O)C(C)C)CSSC[C@@H](C(=O)N[C@@H](Cc2ccccc2)C(=O)N[C@@H](CCC(=O)O)C(=O)N[C@@H](CCCNC(=N)N)C(=O)N[C@@H](CC(C)C)C(=O)N[C@@H](CCSC)C(=O)N[C@@H](CCCCN)C(N)=O)NC(=O)[C@H](CCC(=O)O)NC(=O)[C@H](Cc2c[nH]c3ccccc23)NC(=O)[C@H](C(C)C)NC(=O)[C@H](Cc2c[nH]c3ccccc23)NC(=O)[C@H](CCSC)NC(=O)[C@H](C(C)C)NC(=O)[C@H](Cc2c[nH]cn2)NC1=O [Compound 62, VEPNCDIHVMWVWECFERLMK] (Ac-VEPNCDIHVMWVWECFERLMK-NH2; disulfide 5-15 (inferred))",25
5,"CC[C@H](C)[C@@H]1NC(=O)[C@H](CC(=O)O)NC(=O)[C@@H](NC(=O)[C@H](CC(N)=O)NC(=O)[C@@H]2CCCN2C(=O)[C@H](CCC(=O)O)NC(=O)[C@@H](NC(C)=O)C(C)C)CSSC[C@@H](C(=O)N[C@@H](Cc2ccccc2)C(=O)N[C@@H](CCC(=O)O)C(=O)N[C@@H](CCCNC(=N)N)C(=O)N[C@@H](CC(C)C)C(=O)N[C@@H](CCSC)C(=O)N[C@@H](CCCCN)C(=O)N[C@@H](CCC(=O)O)C(=O)N[C@@H](CC(C)C)C(N)=O)NC(=O)[C@H](CCC(=O)O)NC(=O)[C@H](Cc2c[nH]c3ccccc23)NC(=O)[C@H](C(C)C)NC(=O)[C@H](Cc2c[nH]c3ccccc23)NC(=O)[C@H](CCSC)NC(=O)[C@H](C(C)C)NC(=O)[C@H](Cc2c[nH]cn2)NC1=O [Compound 65, VEPNCDIHVMWVWECFERLMKEL] (Ac-VEPNCDIHVMWVWECFERLMKEL-NH2; disulfide 5-15 (inferred))",18
6,"CC[C@H](C)[C@@H]1NC(=O)[C@H](CC(=O)O)NC(=O)[C@@H](NC(=O)[C@H](CC(N)=O)NC(=O)[C@@H]2CCCN2C(=O)[C@H](CCC(=O)O)NC(=O)[C@@H](NC(C)=O)C(C)C)CSSC[C@@H](C(=O)N[C@@H](Cc2ccccc2)C(=O)N[C@@H](CCC(=O)O)C(=O)N[C@@H](CCCNC(=N)N)C(=O)N[C@@H](CC(C)C)C(N)=O)NC(=O)[C@H](CCC(=O)O)NC(=O)[C@H](Cc2c[nH]c3ccccc23)NC(=O)[C@H](CCC(=O)O)NC(=O)[C@H](Cc2c[nH]c3ccccc23)NC(=O)[C@H](CCSC)NC(=O)[C@H](C(C)C)NC(=O)[C@H](Cc2c[nH]cn2)NC1=O [Compound 34, V-E-P-N-C-D-I-H-V-M-W-E-W-E-C-F-E-R-L] (Ac-VEPNCDIHVMWEWECFERL-NH2; disulfide 5-15 (inferred))",188
7,"CC[C@H](C)[C@@H]1NC(=O)[C@H](CC(=O)O)NC(=O)[C@@H](NC(=O)[C@H](CC(N)=O)NC(=O)[C@@H]2CCCN2C(=O)[C@H](CCC(=O)O)NC(=O)[C@@H](NC(C)=O)C(C)C)CSSC[C@@H](C(=O)N[C@@H](Cc2ccccc2)C(=O)N[C@@H](CCC(=O)O)C(=O)N[C@@H](CCCNC(=N)N)C(=O)N[C@@H](CC(C)C)C(=O)N[C@@H](Cc2ccc(O)cc2)C(=O)NCC(N)=O)NC(=O)[C@H](CCC(=O)O)NC(=O)[C@H](Cc2c[nH]c3ccccc23)NC(=O)[C@H](C(C)C)NC(=O)[C@H](Cc2c[nH]c3ccccc23)NC(=O)[C@H](CCSC)NC(=O)[C@H](C(C)C)NC(=O)[C@H](Cc2c[nH]cn2)NC1=O [Compound 47, VEPNCDIHVMWVWECFERLYG] (Ac-VEPNCDIHVMWVWECFERLYG-NH2; disulfide 5-15 (inferred))",43.3
8,"CC[C@H](C)[C@@H]1NC(=O)[C@H](CC(=O)O)NC(=O)[C@@H](NC(=O)[C@H](CC(N)=O)NC(=O)[C@@H]2CCCN2C(=O)[C@H](CCC(=O)O)NC(=O)[C@@H](NC(C)=O)C(C)C)CSSC[C@@H](C(=O)N[C@@H](Cc2ccccc2)C(=O)N[C@@H](CCC(=O)O)C(=O)N[C@@H](CCCNC(=N)N)C(=O)N[C@@H](CC(C)C)C(=O)N[C@@H](Cc2ccc(O)cc2)C(=O)NCC(=O)NCC(=O)NCC(N)=O)NC(=O)[C@H](CCC(=O)O)NC(=O)[C@H](Cc2c[nH]c3ccccc23)NC(=O)[C@H](C(C)C)NC(=O)[C@H](Cc2c[nH]c3ccccc23)NC(=O)[C@H](CCSC)NC(=O)[C@H](C(C)C)NC(=O)[C@H](Cc2c[nH]cn2)NC1=O [Compound 61, VEPNCDIHVMWVWECFERLYGGG] (Ac-VEPNCDIHVMWVWECFERLYGGG-NH2; disulfide 5-15 (inferred))",23.6
9,"CC[C@H](C)[C@@H]1NC(=O)[C@H](CC(=O)O)NC(=O)[C@@H](NC(=O)[C@H](CC(N)=O)NC(=O)[C@@H]2CCCN2C(=O)[C@H](CCC(=O)O)NC(=O)[C@@H](NC(C)=O)C(C)C)CSSC[C@@H](C(=O)N[C@@H](Cc2ccccc2)C(=O)N[C@@H](CCC(=O)O)C(=O)N[C@@H](CCCNC(=N)N)C(=O)N[C@@H](CC(C)C)C(=O)N[C@@H](Cc2ccc(O)cc2)C(=O)NCC(=O)N2CCC[C@H]2C(=O)N[C@@H](CC(C)C)C(N)=O)NC(=O)[C@H](CCC(=O)O)NC(=O)[C@H](Cc2c[nH]c3ccccc23)NC(=O)[C@H](C(C)C)NC(=O)[C@H](Cc2c[nH]c3ccccc23)NC(=O)[C@H](CCSC)NC(=O)[C@H](C(C)C)NC(=O)[C@H](Cc2c[nH]cn2)NC1=O [Compound 76, VEPNCDIHVMWVWECFERLYGPL] (Ac-VEPNCDIHVMWVWECFERLYGPL-NH2; disulfide 5-15 (inferred))",2.3
